{
  "source": "patent US20260240915A1",
  "about": "“USE OF EXTRACELLULAR VESICLES FOR THE TREATMENT OF CANCER” (HENRY FORD HEALTH SYSTEM, priority 2023, published 2026)",
  "key": {"[1]": {"test_system": "HepG2 hepatocellular carcinoma cells", "assay": "MTT cell viability assay, HepG2", "format": "cell-based", "conditions": "for effect of inhibitor alone on cancer viability: CPZ 2.5 to 10 μg/ml, nystatin 5 to 30 μM", "excerpt": "(§1) Based on preliminary research, we hypothesized that under duress, cells and cell lines might generate exosomes that are deleterious specifically to malignant cells and tissue. We also speculated that exosomes could be loaded with specific microRNA (mi-RNA) that might further enhance anti-cancer activity and specificity. We initiated studies with human cerebral endothelial cells (HCEC) because […], endothelial cells would be able to release exosomes directly into the systemic circulation where they could travel to cancer sites. The initial mechanism of cellular stress we chose for the HCEC cells was oxygen-glucose deprivation (OGD). HCEC cells were exposed to OGD deprivation for a period of four hours and then exosomes were harvested and purified (See methods). HCEC cells exposed to OGD deprivation for longer than four hours started to lose viability. The “4 h-OGD-exosomes” were then tested for their effect on the viability of hepatocellular cancer cell lines, HepG2 and Hep3B, and on the benign liver cell line, THLE-2. To assay the cell viability of target cells, we used the MTT (3-(4,5-Dimethylthiazol-2-yl)-2,5-diphenyltetrazolium bromide) assay (See Methods). All cancer lines used in all of the studies are outlined in Table 1.\n(§2) Cells were cultured in medium with indicated treatment."}, "[2]": {"test_system": "Hep3B hepatocellular carcinoma cells", "assay": "MTT cell viability assay, Hep3B", "format": "cell-based", "conditions": "for effect of inhibitor alone on cancer viability: CPZ 2.5 to 10 μg/ml, nystatin 5 to 30 μM; for effect of inhibitor pretreatment on the anti-cancer effect of Hypo-Exo: pretreatment with endocytosis inhibitor, then Hypo-Exo", "excerpt": "as §1, §2"}, "[3]": {"test_system": "primary liver cancer cells taken from patients", "assay": "Viability of primary liver cancer cells from HCC patients", "description": "Exosomes were tested against primary liver cancer cells taken from the patient's tumor as well as non-malignant, normal liver cells taken from a distant site in the explant liver away from the tumor. OGD-Exo were tested along with HCEC-m214-Exo and also with the chemotherapeutic agents, oxaliplatin and Sorafenib. […] OGD-Exo were used at a dose of 10^8 p/ml to avoid excessive killing with OGD-Exo alone. Exosomes were tested against patient 11 (Pt.011) and patient 12 (Pt.012).\n3-(4,5-dimethylthiazol-2-yl)-2,5 diplenyltetrazolium bromide (MTT) assay: To measure cell viability, cells were seeded in 96-well plates at a density of 800 cells per well. Cells were cultured in medium with indicated treatment. After 5 days of treatment, medium was removed and MTT was added to each well with an additional 4 hr incubation to allow mitochondrial dehydrogenase to convert MTT into insoluble formazan crystals. The absorption of solubilized formazan was measured at a wavelength of 490 nm by an ELISA plate reader (EL340 microplate reader; Bio-Tek Instruments, Winooske, VT)."}, "[4]": {"test_system": "HCC patients", "conditions": "study of 600 patients; cited from earlier work"}, "[5]": {"test_system": "hepatitis B-related HCC patients", "conditions": "treatment group, advanced stage patients; cited from earlier work"}, "[6]": {"test_system": "benign THLE-2 liver cell line", "assay": "MTT cell viability assay, THLE-2", "format": "cell-based", "conditions": "benign liver cells", "excerpt": "as §1, §2"}},
  "note": "Entries after “also recorded” stand apart in the source; their conditions may differ.",
  "data": [
    {"smiles": "CN(C)CCCN1c2ccccc2Sc2ccc(Cl)cc21", "note": "[CPZ, chlorpromazine]", "values": [
      {"measurement": "effect of inhibitor alone on cancer viability", "setting": "[1]", "result": "did not affect cancer viability"},
      {"measurement": "effect of inhibitor pretreatment on the anti-cancer effect of Hypo-Exo", "setting": "[1]; pretreatment with endocytosis inhibitor, then Hypo-Exo", "result": "significantly attenuated the anti-cancer effect of Hypo-Exo; also recorded: blunt the anti-tumor effect of Hypo-Exo"},
      {"measurement": "effect of inhibitor alone on cancer viability", "setting": "[2]", "result": "did not affect cancer viability"},
      {"measurement": "effect of inhibitor pretreatment on the anti-cancer effect of Hypo-Exo", "setting": "[2]", "result": "significantly attenuated the anti-cancer effect of Hypo-Exo"}
    ]},
    {"smiles": "CNC(=O)c1cc(Oc2ccc(NC(=O)Nc3ccc(Cl)c(C(F)(F)F)c3)cc2)ccn1", "note": "[Sorafenib]", "values": [
      {"measurement": "viability at 1.2 µM", "setting": "[1]; Homo sapiens, HepG2, Hypo-Exo 10^8 p/ml, Sorafenib 1.2 μM", "result": 67.4, "unit": "%"},
      {"measurement": "cytotoxicity at 1.2 µM", "setting": "[3]; Homo sapiens, read-out: decrease in viability of primary liver cancer cells", "result": "42 to 44", "unit": "%"},
      {"measurement": "viability at 0.8 µM", "setting": "[2]; Homo sapiens, Hep3B, Hypo-Exo 10^8 p/ml, Sorafenib 0.8 µM", "result": 80.5, "unit": "%"},
      {"measurement": "increase in survival", "setting": "[4]", "result": "three"},
      {"measurement": "median overall survival", "setting": "[5]", "result": 6.5, "unit": "months"},
      {"measurement": "effect on cell viability", "setting": "[6]", "result": "negligible impact"}
    ]},
    {"smiles": "C[C@@H]1[C@H](O)[C@@H](C)/C=C/C=C/CC/C=C/C=C/C=C/C=C/C(O[C@H]2O[C@H](C)[C@@H](O)[C@H](N)[C@@H]2O)CC2O[C@](O)(CC(O)C(O)CCC(O)CC(O)CC(O)CC(=O)O[C@H]1C)CC(O)C2C(=O)O", "note": "(some centres unmarked) [nystatin]", "values": [
      {"measurement": "effect of inhibitor alone on cancer viability", "setting": "[1]", "result": "did not affect cancer viability"},
      {"measurement": "effect of inhibitor alone on cancer viability", "setting": "[2]", "result": "did not affect cancer viability"},
      {"measurement": "effect of inhibitor pretreatment on the anti-cancer effect of Hypo-Exo", "setting": "[2]", "result": "significantly diminished the anti-cancer effect of Hypo-Exo; also recorded: blunts the effect of Hypo-Exo"}
    ]},
    {"smiles": "O=C1[O][Pt]2([NH][C@@H]3CCCC[C@H]3[NH]2)[O]C1=O", "note": "[oxaliplatin]", "values": [
      {"measurement": "decrease in viability of primary liver cancer cells", "setting": "[3]; OGD-Exo 10^8 p/ml, oxaliplatin 0.06125 µM, Sorafenib 1.20 μM, Pt.011 and Pt.012", "result": "approximately 20%"}
    ]}
  ]
}
